Experimental data reported in patent US4452851A, “Cephem compounds” (Fujisawa Pharmaceutical Co., Ltd., priority 1981, dated 1984).
Values after ≈ are worked out from the molar mass of the structure shown.

How the values were obtained:
[1] = system: Escherichia coli NIHJ JC-2; assay: Minimal inhibitory concentration, two-fold agar-plate dilution method; format: cell-based; settings: NIHJJC2, HI-agar, 37° C., 20 hours
Procedure: (§1) In vitro antibacterial activity was determined by the two-fold agar-plate dilution method as described below. One loopful of an overnight culture of each test strain in Trypticase-soy broth (10^8 viable cells per ml) was streaked on heart infusion agar (HI-agar) containing graded concentrations of representative test compound, and the minimal inhibitory concentration (MIC) was expressed in terms of μg/ml after incubation at 37° C. for 20 hours.

Klebsiella pneumoniae 20 = assay: as above; format: cell-based; settings: HI-agar, 37° C., 20 hours
Procedure: as §1

[2] = system: Proteus vulgaris IAM-1025; assay: as above; format: cell-based; settings: IAM1025, HI-agar, 37° C., 20 hours
Procedure: as §1

Proteus mirabilis 18 = assay: as above; format: cell-based; settings: HI-agar, 37° C., 20 hours
Procedure: as §1

Escherichia coli 31 = assay: as above; format: cell-based; settings: HI-agar, 37° C., 20 hours
Procedure: as §1

[3] = Urinary excretion in rats after oral administration; format: in vivo; settings: rat, 100 mg/kg, 100 mg per Kg, urine 0 to 24 hours, bioassay
Procedure: The concentration of antibiotic in urine samples were bioassayed with the standard buffer at pH 7.0, and the urinary excretion in 24 hours were calculated.

in vivo = settings: rat, po, 100 mg/kg
Procedure: Rats anesthetized with pentobarbital were fixed in supine position, and a polyethylene cannula was inserted into the bile duct. Bile samples were collected at 0 to 3, 3 to 6, and 6 to 24 hours after oral administration of 100 mg of the test drugs per kg. The antibiotic levels in the bile samples were assyed with the standard solutions prepared with M/15 phosphate buffer (pH 7.0) and the biliary excretion in 24 hours were calculated.

Compound	MIC [1] [µg/mL]	MIC (Klebsiella pneumoniae 20) [µg/mL]	MIC [2] [µg/mL]	MIC (Proteus mirabilis 18) [µg/mL]	MIC (Escherichia coli 31) [µg/mL]	dose excreted at 24 h [3] [%]	dose excreted at 24 h (in vivo) [%]
CSC1=C(C(=O)O)N2C(=O)C(NC(=O)/C(=N\OCC(=O)O)c3csc(N)n3)C2SC1 (stereo not drawn) [Compound (1), 7-[2-(2-aminothiazol-4-yl)-2-carboxymethoxyiminoacetamido]-3-methylthio-3-cephem-4-carboxylic acid (syn isomer)]	1.56 (≈ 3.29 µM)	0.1 (≈ 0.211 µM)	0.39 (≈ 0.824 µM)	0.05 (≈ 0.106 µM)	0.2 (≈ 0.422 µM)	51.6	41.1
CSC1=C(C(=O)O)N2C(=O)C(NC(=O)/C(=N\OCC(=O)O)c3cscn3)C2SC1 (stereo not drawn) [Test Compound (3), 7-[2-(4-thiazolyl)-2-carboxymethoxyiminoacetamido]-3-methylthio-3-cephem-4-carboxylic acid (syn isomer)]						48.6	25.5

Next, values leading:

MIC [1] [µg/mL]	MIC (Klebsiella pneumoniae 20) [µg/mL]	MIC [2] [µg/mL]	MIC (Proteus mirabilis 18) [µg/mL]	MIC (Escherichia coli 31) [µg/mL]	dose excreted at 24 h [3] [%]	dose excreted at 24 h (in vivo) [%]	Compound
1.56 (≈ 3.19 µM)	0.39 (≈ 0.798 µM)	0.78 (≈ 1.6 µM)	0.2 (≈ 0.409 µM)	0.2 (≈ 0.409 µM)			CCSC1=C(C(=O)O)N2C(=O)C(NC(=O)/C(=N\OCC(=O)O)c3nsc(N)n3)C2SC1 (stereo not drawn) [(4), 7-[2-(5-amino-1,2,4-thiadiazol-3-yl)-2-carboxymethoxyiminoacetamido]-3-ethylthio-3-cephem-4-carboxylic acid (syn isomer)]
3.13 (≈ 6.42 µM)	0.1 (≈ 0.205 µM)	0.78 (≈ 1.6 µM)	0.025 (≈ 0.0513 µM)	0.2 (≈ 0.41 µM)	19.4	32.2	CCSC1=C(C(=O)O)N2C(=O)C(NC(=O)/C(=N\OCC(=O)O)c3csc(N)n3)C2SC1 (stereo not drawn) [Compound (2), 7-[2-(2-aminothiazol-4-yl)-2-carboxymethoxyiminoacetamido]-3-ethylthio-3-cephem-4-carboxylic acid (syn isomer)]
1.56 (≈ 2.99 µM)	0.2 (≈ 0.383 µM)	0.1 (≈ 0.192 µM)	0.05 (≈ 0.0958 µM)	0.2 (≈ 0.383 µM)			CCSC1=C(C(=O)O)N2C(=O)C(NC(=O)/C(=N\OCC(=O)O)c3nc(N)sc3Cl)C2SC1 (stereo not drawn) [Compound (3), 7-[2-(2-amino-5-chlorothiazol-4-yl)-2-carboxymethoxyiminoacetamido]-3-ethylthio-3-cephem-4-carboxylic acid (syn isomer)]
